The structures appear in SMILES notation. Entries after “also recorded” stand apart in the source; their conditions may differ.

Consider 1 compound from publication PMC10368370, “Development of o-aminobenzamide salt derivatives for improving water solubility and anti-undifferentiated gastric cancer” (Frontiers in Pharmacology, 2023).

Series [1] is described as follows: Screening of F8 related organic salts (crystallinity, hygroscopicity, solubility, stability, irritability). It is filed as physicochemical. The conditions noted are these: salt screening. The text has this: The selection of salt form is a key step to the success of drug development, which requires a well-designed screening strategy to find the salt form that meets the target performance. Although there are many kinds of counter ions, the commonly used ones are very limited.

In a further series the test system is HGC-27 xenograft. Put plainly: HGC-27 tumor xenograft model. As to conditions: p.o., bid; for tumor growth inhibition (TGI): 14 days, HGC-27 xenograft. It is filed as in vivo, BALB/c nude mice.
Series [2] in a line: In vivo acute toxicity study. The arrangement: species or system Kunming mice. The conditions noted are these: for LD50 at 14 days: both sexes, Kunming, mouse, in vivo. As for the experimental part:
We investigated the toxicity of F8·2HCl when administered in three different ways, and F8·2HCl was all dissolved with normal saline, and the concentration of intravenous and intraperitoneal injection was 8 mg/mL, and the concentration of intragastric administration was 10 mg/mL. Ninety Kunming mice (45 males and 45 females) weighing 18–22 g were divided into 15 groups (n = 6). The doses of F8·2HCl injected by tail vein were 40 mg/kg, 60 mg/kg, 90 mg/kg, 110 mg/kg, 135 mg/kg, 200 mg/kg, 300 mg/kg, 400 mg/kg and 500 mg/kg, respectively. Intraperitoneal injection of different doses of F8·2HCl were 200 mg/kg, 250 mg/kg, 300 mg/kg, 360 mg/kg and 500 mg/kg, respectively. We also added a dose of 600 mg/kg administered by gavage. All drugs administered were dissolved in normal saline. Toxicity was monitored for 14 days. During the monitoring period, the status of mice was observed and their body weight was recorded.
To evaluate the safety of F8·2HCl in vivo, acute toxicity studies were performed. First, six Kunming mice (half male and half female) were gavage with F8·2HCl at a single dose of 600 mg/kg.

For the next series, the system named is MDA-MB-231. The series is described as follows: MTT cytotoxicity / anti-proliferation assay. It is filed as cell-based. The conditions noted are these: MDA-MB-231, MTT, 72 h; read-out: IC50, cancer cell viability.
The next series relates to HCC-1806. Put plainly: MTT cytotoxicity / anti-proliferation assay. As to conditions: HCC-1806, MTT, 72 h; read-out: IC50, cancer cell viability. The format is cell-based.

Experimental for HGC-27 xenograft: 4-week-old male BALB/c nude mice weighing 18g–22 g were injected with 100 μL HGC-27 cells (2 × 10^6 cells) to establish an undifferentiated gastric cancer model.
(A) Tumor volumes plotted as mean ± SEM. (B) Mice weight curve during treatment plotted as mean ± SD. (C,D) Tumor weight and size on the final day.

In the case of `O=C(NCc1ccc(NC(=O)c2cc(F)ccc2N2CCCC2)cc1)OCc1cccnc1` [F8·2HCl], the Crystalline result in series [1] is reported as “crystallization”. Moreover, the Hygroscopic entry in series [1] is “Almost no moisture absorption”. For the same compound, the Stability entry in series [1] was “remain stable under high temperature (80°C), acid, alkaline, oxidation and reduction conditions; also recorded: Keep stable in extreme environment”. In addition, the Solubility result in series [1] (water) was “Soluble”. Moreover, the “tumor growth inhibition (TGI)” value with HGC-27 xenograft (37.5 mg/kg) is on record as 60.6%; with HGC-27 xenograft (75 mg/kg), 70.1%. Also, the “body weight of mice vs control group” value in the series with HGC-27 xenograft (37.5 and 75 mg/kg, during treatment) was “no significant weight loss”. For the same compound, in the series with HGC-27 xenograft (37.5 and 75 mg/kg, final day), the “tumor weight vs control group” value is listed as “significant decrease in tumor weight”. In addition, the “HE staining of heart, liver, spleen, lung, kidney” value in series [2] (200 mg/kg intraperitoneal injection) and in series [2] (600 mg/kg oral administration) was “intact without any lesions” in each case. The LD50 at 14 days in series [2] (ip, intraperitoneal injection, KM mice, 14 days) was 303 mg/kg; in series [2] (intravenous injection, KM mice, 14 days), 153 mg/kg. Besides, the “survival and abnormal reactions” value in series [2] (single dose 600 mg/kg by gavage, KM mice, 14 days) is on record as “All the mice survived 14 days without any abnormal reactions”. Further, the IC50 in the series with MDA-MB-231 was determined as 47 ± 0.62 µM; in the series on HCC-1806, 16.2 ± 0.41 µM.

Usually LD50 stands for the dose expected to kill half of the subjects tested. Read a low LD50 as greater toxicity. By IC50 is commonly meant the concentration needed to halve the response being measured.
